Results taken from patent US20110091875A1, “THREE-COMPONENT GENE EXPRESSION REPORTING SYSTEM FOR MAMMALIAN CELLS AND APPLICATIONS OF THE SAME” (National Chung Cheng University, priority 2009, published 2011).

Legend:
Type in all cases: cell-based, human
[1] = system: Trip10 promoter; assay: Reactivation of inactivated Trip10 promoter by 5-aza-2′-deoxycytidine and 17β-estradiol (EGFP in SC6 cells); details: me_Trip10 DNA transfected SC6 cells
Protocol: The obtained photographs were analyzed via an image analyzing software Scion Image. Briefly, the photographs were divided into several regions by the Scion Image software, in which the EGFP signal in a region visually observed as a black region was defined as 0, and the EGFP signal in a region that was visually observed to have the strongest fluorescence was defined as 255. Thereafter, the EGFP intensity was obtained by summing up the EGFP signals in all the regions, followed by dividing by the total area of said regions. […] The transfection-treated SC6 cells, which were harvested two days after the third time of transfection according to the procedures set forth in the section, entitled “2. […] From the second time of medium change (Day 4), the screening medium was further supplemented with 10 ng/mL 17β-estradiol. Expression of EGFP in the SC6 cells was observed using an inverted fluorescence microscope prior to making the medium change, and photographs were recorded using a digital camera connected to the inverted fluorescence microscope.

[2] = system: SC6 cells; assay: Growth of SC6 cells in medium with 5-aza-2′-deoxycytidine (cytotoxicity); details: screening medium with 25 μM 5-aza-2′-deoxycytidine
Protocol: Transfection of SC6 cells with me_Trip10 DNA,” of the above Example 4, were plated into each well of 6-well plates (1×10^4 cells/2 mL screening medium/well), followed by cultivation overnight in an incubator (37° C., 95% O2/5% CO2) to permit cell attachment. 10 mM 5-aza-2′-deoxycytidine (dissolved in DMSO) was subsequently added into each well to reach a final concentration of 25 μM (Day 0). Thereafter, medium changes were performed every two days with fresh screening medium supplemented with 25 μM 5-aza-2′-deoxycytidine. From the second time of medium change (Day 4), the screening medium was further supplemented with 10 ng/mL 17β-estradiol. Expression of EGFP in the SC6 cells was observed using an inverted fluorescence microscope prior to making the medium change, and photographs were recorded using a digital camera connected to the inverted fluorescence microscope.

[3] = system: Trip10 promoter; assay: Effect of 17β-estradiol upon the Trip10 promoter against DNA methylation (EGFP in SC6 cells); details: 10 ng/mL 17β-estradiol before; for EGFP intensity compared to 0 hr: during and after transfection with me_Trip10 DNA
Protocol: The obtained photographs were analyzed via an image analyzing software Scion Image. Briefly, the photographs were divided into several regions by the Scion Image software, in which the EGFP signal in a region visually observed as a black region was defined as 0, and the EGFP signal in a region that was visually observed to have the strongest fluorescence was defined as 255. Thereafter, the EGFP intensity was obtained by summing up the EGFP signals in all the regions, followed by dividing by the total area of said regions. Finally, the EGFP intensity at 0 hr was defined as 100%, and the EFGP intensity percentages of the EGFP intensities at other time points relative to that at 0 hr were calculated.
First, a proper amount of 17β-estradiol was dissolved in alcohol to form a stock solution having a concentration of 10 mg/mL. The SC6 cells as obtained in the above Example 3 were plated into each well of 6-well plates (1×10^5 cells/2 mL screening medium/well), followed by cultivation overnight in an incubator (37° C., […]/5% CO2) to permit cell attachment. […] After cultivation at 37° C. for 24 hours, the SC6 cells were transfected with 0.4 μg of single-stranded me_Trip10 DNA according to the transfection treatment as described in the section, entitled “2. Transfection of SC6 cells with me_Trip10 DNA” of the above Example 4, except that the growth medium was supplemented with 10 ng/mL 17β-estradiol and was added into each well until a final volume of 1 mL was reached.
The first time at which the liquid in each well was added to reach 1 mL was defined as Hour 0. Expression of EGFP in the SC6 cells was observed using an inverted fluorescence microscope at 0 hr, 24 hrs, 72 hrs and 120 hrs, respectively, and photographs were recorded using a digital camera connected to the inverted fluorescence microscope.

Compound | EGFP intensity compared to Day 2 (100%) ([1]; Day 4, 25 μM 5-aza-2′-deoxycytidine alone) | reactivation of the Trip10 promoter / reversal of its methylation [1] | cytotoxicity [2] | methylation of Trip10 promoter induced by me_Trip10 DNA ([3]; during and after transfection) | EGFP intensity compared to 0 hr ([3]; 72 hrs) | EGFP intensity compared to 0 hr ([3]; other time points (24 hrs, 120 hrs))
Nc1ncn([C@H]2C[C@H](O)[C@@H](CO)O2)c(=O)n1 [5-aza-2′-deoxycytidine] | over 100% | insufficient to reactivate the Trip10 promoter | no cytotoxicity | – | – | –
C[C@]12CC[C@@H]3c4ccc(O)cc4CC[C@H]3[C@@H]1CC[C@@H]2O [17β-estradiol] | – | – | – | could be prevented from methylation | about 150% | around 100%
